PubChem BioAssay AID1963837 (Molecular Pharmacology Branch, DTP, NCI, 2024)
Values joined by “and” are separate entries in the source; they are usually repeats but may differ in a detail not shown here. Equal entries are not always repeated.

Test system: 843126-344-R-J1-PDC complex spheroid viability
Test: Anticancer human tumor 843126-344-R-J1-PDC patient-derived melanoma cell line growth inhibition [POLQ]
Details: for viability, T/C: stronger effect = lower value; active = viability on the fitted dose curve at most 10% of control; inactive = the rest
In short: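 PDC + HUVEC + MSC complex spheroids; POLQ inhibitors ± partner drugs; top conc. at/near clinical Cmax, else 10 microM (SN-38 1 microM), half-log dilutions; 37 degrees C, 5% CO2.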
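Throughout, for viability, T/C: spheroids exposed to drugs for seven days before readout.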

C=CCn1c(=O)c2cnc(Nc3ccc(N4CCN(C)CC4)cc3)nc2n1-c1cccc(C(C)(C)O)n1
> 1000 nM: IC50 (curve of compound)
inactive: viability, T/C (compound 0.00316 µM) 101% and 96.6% and 95.3% | viability, T/C (compound 0.01 µM) 89.5% and 86.3% and 96.3% | viability, T/C (compound 0.0316 µM) 95.7% (2×) and 111% | viability, T/C (compound 0.1 µM) 109% and 97.8% and 99.3% | viability, T/C (compound 0.316 µM) 91.6% and 93.7% and 98.2% | viability, T/C (compound 1 µM) 81.1% and 78.6% and 82.7%
